Converted amounts (≈) assume the structure as drawn. Bounds are passed on as bounds.

For this data set the following is noted: buffer; pH 7.4; 200.0 µM.
What is called kinetic solubility is solubility judged after dilution from a stock solution rather than from solid. On to `O=C(NCCc1ccc(F)cc1)c1coc(=O)c(Br)c1`, for which the kinetic solubility was 2.9 µg/mL (≈ 8.53 µM). In the case of `COc1cccc(/C=C/C(=O)NCc2ccc3c(c2)OCO3)c1`, the solubility (kinetic) is 11.4 µg/mL (≈ 36.6 µM).

In turn, `CN(Cc1ccccc1F)C(=O)CCCNC(=O)c1ccc(Cl)cc1` displayed a kinetic solubility of 32.4 µg/mL (≈ 89.3 µM). This solubility kinetic is about 2.8-fold higher than that of the molecule before. The figure for `COc1cc2c(cc1OC)CN(C(=O)c1ccc(Br)o1)CC2` is greater than 54.9 µg/mL; for `CC(C)(C#CC(O)(c1ccccc1)c1ccccc1)N1CCCC1.Cl` it is greater than 53.4 µg/mL; for `N/C(=N\O)c1cn(Cc2ccccc2Cl)c2ccccc12` it is 39.4 µg/mL (≈ 131 µM). As for `c1ccc(CCN2CCC3(CC2)OCCO3)cc1`, the figure is 29.2 µg/mL (≈ 118 µM); as for `Cc1ccc(CC(=O)Nc2cc(C)on2)cc1`, 14 µg/mL (≈ 60.8 µM); as for `Cn1c(CO)cnc1SCC(=O)c1ccc(F)cc1`, greater than 42 µg/mL. As for `CC(=O)c1cccc(NC(=O)c2cc(-c3cccs3)on2)c1`, the figure is less than 0.3 µg/mL; as for `COc1cccc(/C=C/C(=O)OCC(=O)NC2CCCCCCC2)c1`, 6.7 µg/mL (≈ 19.4 µM). The molecule `CC(C)CC(=O)Nc1ccc2c(c1)nc(CCN1CCOCC1)n2C` gave a kinetic solubility greater than 51.7 µg/mL. `CCN(CC)c1ccc(CNCc2cccs2)cc1.Cl`: the kinetic solubility was determined as 44.2 µg/mL. As for `CCCCOc1cc(CC2CNC(=O)N2)ccc1OC` (stereo not drawn), the figure is greater than 41.8 µg/mL; as for `CSc1nc2ccc(NC(=O)COc3ccccc3F)cc2s1`, 2.2 µg/mL (≈ 6.31 µM).

In the case of `CN1CCN(C(=S)NC(=O)c2ccccc2Cl)CC1`, the solubility (kinetic) is greater than 44.7 µg/mL.

Consider `CC(C)CCNC(=O)C(=O)Nc1cc2c3c(c1)CC(=O)N3CCC2`, for which the kinetic solubility was determined as 28.5 µg/mL (≈ 86.5 µM). In the case of `CN(CC(=O)Nc1cccc(F)c1)CC(=O)Nc1cccc2ccccc12`, the kinetic solubility amounted to 15.4 µg/mL (≈ 42.1 µM).

With `FC(F)Oc1ccc(NC(=S)NCc2nc3ccccc3[nH]2)cc1`, the kinetic solubility is greater than 52.3 µg/mL.

In the case of `NC(=S)Nc1ccccc1Br`, the kinetic solubility was greater than 34.7 µg/mL. For `Oc1ccc(Cl)cc1CNc1ccccn1`, the solubility (kinetic) was found to be 6.5 µg/mL (≈ 27.7 µM). Consider `CC(=O)c1ccc(NC(=O)C2C3CCC(C3)C2C(=O)O)cc1` (stereo not drawn), for which the kinetic solubility is greater than 45.2 µg/mL. The figure for `COC(=O)c1c(SCC(=O)Nc2ccc(C)cc2)nc(=O)[nH]c1C` is 8.4 µg/mL (≈ 24.2 µM). The figure for `OCCCC1CCCCN1Cc1nc(Cc2ccccc2Cl)no1` (stereo not drawn) is 43.4 µg/mL (≈ 124 µM). The figure for `COc1cc(/C=N/c2oc(C)c(C)c2C#N)cc(Br)c1O` is 8 µg/mL (≈ 22.9 µM). As for `CCCNC(=O)CSc1nnc(-c2ccc(F)cc2)o1`, the kinetic solubility is greater than 44.3 µg/mL. `CC(=O)Nc1ccc(S(=O)(=O)Nc2ccc(N3CCCCC3)cc2)cc1` showed a kinetic solubility of 51.9 µg/mL (≈ 139 µM). As for `Cc1ccc(CNC(=O)CCSCc2cccc(F)c2)cc1`, the figure is 5.2 µg/mL (≈ 16.4 µM); as for `NC(=O)CC(c1ccccc1)c1ccc2c(c1)OCO2` (stereo not drawn), 39.9 µg/mL (≈ 148 µM). The figure for `Cc1cc(/C(N)=N/OC(=O)c2ccccc2Cl)no1` is greater than 42 µg/mL; for `CCN(CC)CCNC(=O)c1cc2ccccc2nc1Cl` it is 31.2 µg/mL (≈ 102 µM); for `COc1ccc(N2C(=O)Cc3ccccc3C2=O)cc1` it is 39.3 µg/mL (≈ 147 µM). On to `COc1ccccc1CNC(=O)CCc1cn(C)c2ccccc12`, for which the solubility (kinetic) was found to be 39.2 µg/mL (≈ 122 µM). This solubility kinetic and that of the molecule before are within 1.5-fold of each other. For the molecule `CC(=O)N(C)c1ccc(NC(=O)C(c2ccccc2)c2ccccc2)cc1`, the solubility (kinetic) amounted to 40.2 µg/mL (≈ 112 µM). `NS(=O)(=O)c1ccc(CCNC(=S)NC2CCCCC2)cc1` yielded a solubility (kinetic) greater than 51.2 µg/mL.

For the molecule `COc1ccccc1C1CCN(C(=O)c2ccco2)CC1`, the solubility (kinetic) is 34 µg/mL (≈ 119 µM). The figure for `CN(C)CCNC(=O)c1ccc2c(c1)NC(=O)c1ccccc1S2` is greater than 51.2 µg/mL; for `O=C(/C=C/c1cccc([N+](=O)[O-])c1)OCC1CCCO1` (stereo not drawn) it is 34.4 µg/mL (≈ 124 µM); for `O=C(/C=C/N1CCN(Cc2ccccc2)CC1)C(F)(F)F` it is greater than 44.7 µg/mL. The molecule `CC(=O)Nc1nc2ccccc2n1Cc1ccccc1Cl` yielded a solubility (kinetic) of 5.2 µg/mL (≈ 17.3 µM). The figure for `CCOC(=O)Nc1ccc(N2CCOCC2)c(S(=O)(=O)Nc2ccc(Cl)cc2)c1` is 7.8 µg/mL (≈ 17.7 µM); for `Cn1cccc1C(=O)NC1CCCCC1` it is greater than 30.9 µg/mL; for `O=C(CSc1nc(-c2ccccc2)cc(=O)[nH]1)Nc1ccccc1` it is 1.3 µg/mL (≈ 3.85 µM). The figure for `CCCCCCCCNc1nc(Cl)nc(NCCN2CCOCC2)n1` is 0.5 µg/mL (≈ 1.35 µM); for `O=C1[C@@H]2CSCN2C(=O)CN1Cc1c(F)cccc1Cl` it is greater than 47.2 µg/mL; for `Cc1cc(NC(=O)NC(=O)c2ccccc2F)no1` it is 3 µg/mL (≈ 11.4 µM). As for `Cc1cc(C#N)c(SCC(N)=O)nc1-c1ccc(F)cc1`, the figure is 5.6 µg/mL (≈ 18.6 µM). `C/C(=N\O)c1ccc(Cl)cc1Cl`: the solubility (kinetic) is 22.9 µg/mL (≈ 112 µM). As for `O=C(CCNC(=O)c1ccc([N+](=O)[O-])cc1)NCCc1ccccc1`, the figure is 13.8 µg/mL (≈ 40.4 µM); as for `Cc1ccc(NS(=O)(=O)c2ccc3c(c2)N(C)CCO3)cc1`, 36.1 µg/mL (≈ 113 µM).

In turn, `CC(=O)Nc1ccc(OCc2cccc3ccccc23)cc1` displayed a solubility (kinetic) of less than 0.6 µg/mL.

`Cc1cccn2c(=O)c(C=O)c(NCc3ccccc3)nc12` came in with a solubility (kinetic) of 0.2 µg/mL (≈ 0.682 µM). As for `Cc1ccc(OCC(=O)N2CCC(C)CC2)c([N+](=O)[O-])n1`, the solubility (kinetic) is 43 µg/mL (≈ 147 µM).
